Data from patent US7282507B2, “Indole derivatives as selective androgen receptor modulators (SARMS)” (Janssen Pharmaceutica N.V., priority 2004, dated 2007).
Several values for one entry are separate records, joined by “and”; a condition that tells them apart may be missing. Identical values can stand only once. Like-named read-outs stand apart in the source and are kept apart here.

How the values were obtained:
[1] = target: T1, androgen receptor LBD (Panvera) (Rattus norvegicus, UniProt P15207); assay: Androgen Receptor Filtration Binding Assay (PANVERA)
T1 construct: 5 pmol androgen receptor LBD (Panvera); purchased Panvera
T1 sequence (P15207 651-882 limits assumed): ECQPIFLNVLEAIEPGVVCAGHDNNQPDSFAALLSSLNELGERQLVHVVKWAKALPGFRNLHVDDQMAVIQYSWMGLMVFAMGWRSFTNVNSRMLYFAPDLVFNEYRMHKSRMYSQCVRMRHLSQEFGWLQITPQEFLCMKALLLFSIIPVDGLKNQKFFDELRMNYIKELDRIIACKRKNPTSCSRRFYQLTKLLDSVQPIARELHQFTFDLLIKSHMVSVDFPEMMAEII
Description: The assay was run on a 96 well plate with each well filled with a total reaction volume 150 μL, of a solution containing 5 pmol androgen receptor LBD (Panvera) or 30 μL of freshly prepared rat cytosol, 0.5 nM [^3H] […] (TED buffer contains 10 mM Tris.HCl pH 7.4, 1 mM sodium molybdate, 1.5 mM EDTA, 1 mM DTT and 10% (v/v) glycerol.)
On day one, the solution containing receptor, tracer and TED buffer was distributed into a 96 well plate. Diluted test compound or control vehicle was then added to individual wells and the plate incubated at 4° C. overnight.
On day two, to each well was then added 20 μL human γ-globulin (ICN 823102), prepared at 25 mg/ml in TE pH 8.0, and 55 μL 40% polyethylene glycol 8000 (J T Baker U222-08), prepared in TE pH 8.0. The plate was incubated at 4° C. for 60 minutes. During incubation, the harvester was rinsed with 10% PEG 8000, prepared in TE pH 8.0, and a GF/C Unifilter-96 was pre-wet with 10% PEG. The binding reaction was filtered, the retentate was washed three times with 10% PEG and dried under vacuum for a couple of minutes, then dried at 50° C. for 5 min and the plate was bottom sealed. Next, 25 μL of Microscint-20 (Packard) was added to the filter wells and the plate was top sealed. The plate wells were then counted on a TopCount (Packard).
Counts per well were measured and IC50s determined by linear regression.

[2] = target: T2, androgen receptor (rat ventral prostate cytosol) (Rattus norvegicus, UniProt P15207); assay: Androgen Receptor Binding Using Rat Ventral Prostate Cytosol; conditions: for inhibition at 1 µM: read-out: % Inhibition, Androgen Receptor Binding (Rat Cytosol)
T2 construct: from tissue; host or cells: ventral prostate cytosol of castrated male Sprague Dawley or Wistar rats
T2 sequence (P15207 1-902): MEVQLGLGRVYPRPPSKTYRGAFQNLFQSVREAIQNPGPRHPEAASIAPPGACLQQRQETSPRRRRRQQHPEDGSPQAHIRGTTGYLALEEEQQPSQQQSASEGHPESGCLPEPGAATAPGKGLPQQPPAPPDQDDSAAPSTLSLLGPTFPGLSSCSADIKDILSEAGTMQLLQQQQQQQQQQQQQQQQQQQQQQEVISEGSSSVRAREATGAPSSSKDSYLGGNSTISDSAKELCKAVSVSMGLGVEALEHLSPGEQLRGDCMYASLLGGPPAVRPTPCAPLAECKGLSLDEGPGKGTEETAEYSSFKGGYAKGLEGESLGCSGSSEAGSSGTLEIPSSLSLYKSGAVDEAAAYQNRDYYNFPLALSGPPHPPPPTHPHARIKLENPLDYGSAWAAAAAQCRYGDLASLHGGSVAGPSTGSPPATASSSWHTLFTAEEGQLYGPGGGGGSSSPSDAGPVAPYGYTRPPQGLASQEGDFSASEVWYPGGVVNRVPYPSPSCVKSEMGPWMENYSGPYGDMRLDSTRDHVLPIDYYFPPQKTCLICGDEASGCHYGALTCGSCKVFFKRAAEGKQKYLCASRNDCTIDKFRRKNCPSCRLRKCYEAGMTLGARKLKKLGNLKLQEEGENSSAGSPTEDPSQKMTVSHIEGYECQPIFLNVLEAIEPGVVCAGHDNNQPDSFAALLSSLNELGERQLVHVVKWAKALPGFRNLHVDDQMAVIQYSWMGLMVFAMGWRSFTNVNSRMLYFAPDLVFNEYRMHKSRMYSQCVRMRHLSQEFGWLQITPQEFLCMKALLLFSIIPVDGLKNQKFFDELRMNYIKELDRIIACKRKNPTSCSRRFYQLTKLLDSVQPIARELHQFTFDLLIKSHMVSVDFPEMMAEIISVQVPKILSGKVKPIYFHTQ
Summary of the method: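 Cytosol from castrated rat ventral prostate was incubated overnight at 4°C with 0.5 nM [3H] tracer and compound in TED buffer (10 mM Tris-HCl pH 7.4, molybdate, EDTA, DTT, glycerol).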

[3] = [3H] R1881 tracer 0.5 nM, read-out: IC50 (nM), Androgen Receptor Binding (Panvera)
[4] = read-out: IC50 (nM), Androgen Receptor Binding (Rat Cytosol)
[5] = read-out: IC50 (nM), Androgen Receptor Binding (Panvera)

| SMILES | IC50 [1, 3] | IC50 [2, 4] [nM] | inhibition at 1 µM ([2]; Concentration 1000 nM) [%] | further results |
| --- | --- | --- | --- | --- |
| CC(O)(CSc1ccc(Cl)c(Cl)c1)c1cc2cc([N+](=O)[O-])c(C(F)(F)F)cc2[nH]1 (stereo not shown) [Compound 87] | 350 nM and 1650 nM | 120 |  | % Inhibition, Androgen Receptor Binding (Rat Cytosol) ([2]; Concentration 1000 nM, 1 µM): 85% and 61.5% |
| O=C(c1ccc(Cl)cc1)N1CCC(O)(c2cc3cc(Cl)c(C(F)(F)F)cc3[nH]2)CC1 [Compound 25] | 8800 nM |  |  | % Inhibition, Androgen Receptor Binding (Rat Cytosol) ([2]; Concentration 1000 nM): −83.5% |
| CC(O)(COC(=O)c1ccccc1Cl)c1cc2cc([N+](=O)[O-])c(C(F)(F)F)cc2[nH]1 (stereo not shown) [Compound 54] |  |  |  | IC50 ([1]; IC50 (nM), Androgen Receptor Binding (Panvera)): 220 nM; IC50 [1, 5]: 465 nM; inhibition at 1 µM [2]: 5.5% |
| CC(O)(CSc1ccc(F)cc1)c1cc2ccccc2[nH]1 (stereo not shown) [Compound 108] | 7000 nM |  | 17.5 |  |
| CS(=O)(=O)n1c(C2(O)CCNCC2)cc2cc(Cl)c(C(F)(F)F)cc21 [Compound 23] | 54000 nM | 6000 |  | % Inhibition, Androgen Receptor Binding (Rat Cytosol) ([2]; Concentration 1000 nM): −1.5% |
| COC(=O)c1ccc2c(c1)cc(C(C)(O)CSc1ccccc1)n2S(C)(=O)=O (stereo not shown) [Compound 81] | 15000 nM |  | 5.2 |  |
| CC(O)(CSc1ccc(Cl)cc1)c1cc2cc(Cl)c(C(F)(F)F)cc2[nH]1 (stereo not shown) [Compound 82] | 185 nM and 200 nM | 640 | 69.8 | % Inhibition, Androgen Receptor Binding (Rat Cytosol) ([2]; Concentration 1000 nM, 1 µM): 83% |
| CC(O)(COC(=O)c1ccc([N+](=O)[O-])cc1)c1cc2cc([N+](=O)[O-])c(C(F)(F)F)cc2[nH]1 (stereo not shown) [Compound 63] | 1550 nM |  | 47.5 |  |
| COC(=O)c1ccc2c(c1)cc(C(C)(O)CSC1CCCCC1)n2S(C)(=O)=O (stereo not shown) [Compound 93] | 23000 nM |  | 35 |  |
| CC(O)(COC(=O)c1ccccn1)c1cc2cc([N+](=O)[O-])c(C(F)(F)F)cc2[nH]1 (stereo not shown) [Compound 68] | 19000 nM |  | 36 |  |
| CC(O)(COC(=O)c1ccccc1C(F)(F)F)c1cc2cc(N)c(C(F)(F)F)cc2[nH]1 (stereo not shown) [Compound 59] |  |  |  | IC50 [1, 5]: 4100 nM; IC50 [2]: 220 nM; inhibition at 1 µM [2]: 67.5% |
| CC(O)(CSc1ccc(Cl)cc1)c1cc2nc(C(F)(F)F)ccc2[nH]1 (racemic) [Compound 3] | 26000 nM |  | 6.6 |  |
| CC(O)(COC(=O)c1cccnc1)c1cc2cc(C#N)c(C(F)(F)F)cc2[nH]1 (stereo not shown) [Compound 79] | > 9500 nM |  | 48.5 |  |
| CC(O)(CSc1ccccc1)c1cc2nc(C(F)(F)F)ccc2[nH]1 (racemic) [Compound 2] | 53000 nM |  | 2.5 |  |
| OC1(c2cc3cc(Cl)c(C(F)(F)F)cc3[nH]2)CCN(Cc2ccccc2)CC1 [Compound 22] | > 9600 nM | > 7700 |  |  |
| CC(O)(COC(=O)c1ccccc1C(F)(F)F)c1cc2cc(NC(=O)C(F)(F)F)c(C(F)(F)F)cc2[nH]1 (stereo not shown) [Compound 60] | 6750 nM | > 10000 | 44.5 |  |
| CC(O)(COC(=O)c1ccc(Cl)cc1)c1cc2cc([N+](=O)[O-])c(C(F)(F)F)cc2[nH]1 (stereo not shown) [Compound 55] | 715 nM and 635 nM | 180 | 5.5 |  |
| CC(O)(CSc1ccc(F)cc1)c1cc2cc(Cl)c(C(F)(F)F)cc2[nH]1 (stereo not shown) [Compound 83] | 160 nM and 545 nM | 120 | 69 |  |
| CC(O)(CSC1CCCCC1)c1cc2nc(C(F)(F)F)ccc2[nH]1 (racemic) [Compound 1] | 14000 nM |  | 22 |  |
| CC(O)(CSc1ccc(F)cc1)c1cc2cc(Cl)ccc2n1S(C)(=O)=O (stereo not shown) [Compound 99] | 5750 nM |  | 8.5 |  |
